Results as given in PMC10067098 (Cancer Medicine, 2023).

Test: plasma pharmacokinetics, non‐compartmental analysis
Format: in vivo, human
Conditions: Day 1 in Cycle 1 or Day 1 in Cycle 2; data not shown
Protocol: In addition, trough plasma concentration (C trough) was measured on Day 7 in Cycle 0, and Day 1 in Cycles 1 and 2.
TEAEs were tabulated by system organ class (SOC) and preferred term (PT). For the other safety and PK endpoints, continuous data were described by mean and standard deviation (SD), median and range, and categorical data were summarized by frequency. The proportionality of the PK parameters, C max and AUC10h, was evaluated using a power model (see Table 4). For the efficacy endpoints, best overall response was tabulated as a frequency table, and the time‐to‐event data such as duration of response, PFS, and OS was evaluated using Kaplan–Meier method. All analyses were conducted using SAS® Version 9.4 (SAS Institute).

COc1cc2ncnc(Nc3ccc(F)c(Cl)c3)c2cc1OCCCN1CCOCC1 [gefitinib]
mean C max and AUC among cohorts: no specific pattern was observed
